Laboratory results taken from patent publication US20070110802A1, “Wet granulation process” (priority 2005, published 2007).

Key:
[1] = pH dependent aqueous solubility of Compound A; type: physicochemical
Protocol: The material was analyzed for hydrate formation.

Protocol for physchem: The pKa of a compound is determined experimentally or it can be calculated, such as with ACDLABS8.0 software.

- solubility ([1]; water, pH 4, aqueous buffer): < 0.015 mg/mL
- pKa (physchem): ~6.6
SMILES: Cc1c(Cl)cccc1S(=O)(=O)Nc1nc(CCN2CCOCC2=O)cs1 [Compound A, 3-chloro-2-methyl-N-(4-(2-(3-oxo-4-morpholinyl)ethyl)-1,3-thiazol-2-yl)benzenesulfonamide]
- pH dependent solubility (FIG. 9) ([1]; solubility versus pH): solubility increases at a pH consistent with the approximate pKa value
